Source: patent US20050059710A1, “Diphenylamino ketone derivatives as MEK inhibitors” (Pfizer Inc, priority 2003, published 2005)

What was measured:
MEK [1] = assay: Cellular assay for MEK inhibition: ERK phosphorylation in C26 cells (C26CPA1); format: cell-based; settings: inhibition of ERK phosphorylation, murine colon 26 (C26) carcinoma cells, one hour at 37° C.
Description: (§1) Cellular Assay for Measuring MEK Inhibition
(§2) MEK inhibitors were evaluated by determining their ability to inhibit phosphorylation of MAP kinase (ERK) in murine colon 26 (C26) carcinoma cells. Since ERK1 and ERK2 represent the only known substrates for MEK1and MEK2, the measurement of inhibition of ERK phosphorylation in cells provides direct read out of cellular MEK inhibition by the compounds of the invention. Detection of phosphorylation of ERK was carried out either by Western blot or ELISA format. Briefly, the assays involve treatment of exponentially growing C26 cells with varying concentrations of the test compound (or vehicle control) for one hour at 37° C. For Western blot assay, cells were rinsed free of compound/vehicle and lysed in a solution containing 70 mM NaCl, 50 mM glycerol phosphate, 10 mM HEPES, pH 7.4, 1% Triton X-100, 1 mM Na3VO4, 100 μM PMSF, 10 μM leupeptin and 10 μM pepstatin. Supernatants were then subjected to gel electrophoresis and hybridized to a primary antibody recognizing dually phosphorylated ERK1 and ERK2. To evaluate total MAPK levels, blots were subsequently ‘stripped’ and re-probed with a 1:1 mixture of polyclonal antibodies recognizing unphosphorylated ERK1 and ERK2. For pERK ELISA assay, pERK TiterZyme Enzyme immunometric Assay kits were acquired from Assay Designs, Inc (Ann Arbor, Mich.). […]

MEK [2] = assay: Cellular assay for MEK inhibition: ERK phosphorylation in C26 cells, pERK ELISA format (C26ELSA); format: cell-based; settings: inhibition of ERK phosphorylation, murine colon 26 (C26) carcinoma cells, one hour at 37° C.
Description: as §1, §2

Compound	melting point	IC50 (MEK [1])	IC50 (MEK [2])
C#Cc1ccc(Nc2c(C(C)=O)ccc(F)c2F)c(F)c1 [Example 10, 1-[2-(4-Ethynyl-2-fluoro-phenylamino)-3,4-difluoro-phenyl]-ethanone]	78 to 80 °C		
C#Cc1ccc(Nc2c(C(=O)c3nccn3C)ccc(F)c2F)c(F)c1 [Example 4, [2-(4-Ethynyl-2-fluoro-phenylamino)-3,4-difluoro-phenyl]-(1-methyl-1H-imidazol-2-yl)-methanone]	166 °C		
Cc1coc(C(=O)c2ccc(F)c(F)c2Nc2ccc(I)cc2F)n1 [Example 5, [3,4-Difluoro-2-(2-fluoro-4-iodo-phenylamino)-phenyl]-(4-methyl-oxazol-2-yl)-methanone]	127 °C	287 nM	
O=C(CO)c1ccc(F)c(F)c1Nc1ccc(I)cc1F [Example 1, 1-[3,4-Difluoro-2-(2-fluoro-4-iodo-phenylamino)-phenyl]-2-hydroxy-ethanone]	128 to 128.5 °C	6.5 nM	20 nM
C#Cc1ccc(Nc2c(C(=O)c3ccccn3)ccc(F)c2F)c(F)c1 [Example 2, [2-(4-Ethynyl-2-fluoro-phenylamino)-3,4-difluoro-phenyl]-pyridin-2-yl-methanone]	109 to 111 °C		
C#Cc1ccc(Nc2c(C(=O)c3nccs3)ccc(F)c2F)c(F)c1 [Example 3, [2-(4-Ethynyl-2-fluoro-phenylamino)-3,4-difluoro-phenyl]-thiazol-2-yl-methanone]	161 °C		
